Assay [1] deals with T1, human TLR7 (Homo sapiens, UniProt Q9NYK1).
T1 construct: expressed in transfected cells; host or cells: HEK293 cell line stably expressing the pNiFty2-SEAP reporter plasmid; TLR7 in pUNO vector, blasticidin selection
T1 sequence (Q9NYK1 27-1049): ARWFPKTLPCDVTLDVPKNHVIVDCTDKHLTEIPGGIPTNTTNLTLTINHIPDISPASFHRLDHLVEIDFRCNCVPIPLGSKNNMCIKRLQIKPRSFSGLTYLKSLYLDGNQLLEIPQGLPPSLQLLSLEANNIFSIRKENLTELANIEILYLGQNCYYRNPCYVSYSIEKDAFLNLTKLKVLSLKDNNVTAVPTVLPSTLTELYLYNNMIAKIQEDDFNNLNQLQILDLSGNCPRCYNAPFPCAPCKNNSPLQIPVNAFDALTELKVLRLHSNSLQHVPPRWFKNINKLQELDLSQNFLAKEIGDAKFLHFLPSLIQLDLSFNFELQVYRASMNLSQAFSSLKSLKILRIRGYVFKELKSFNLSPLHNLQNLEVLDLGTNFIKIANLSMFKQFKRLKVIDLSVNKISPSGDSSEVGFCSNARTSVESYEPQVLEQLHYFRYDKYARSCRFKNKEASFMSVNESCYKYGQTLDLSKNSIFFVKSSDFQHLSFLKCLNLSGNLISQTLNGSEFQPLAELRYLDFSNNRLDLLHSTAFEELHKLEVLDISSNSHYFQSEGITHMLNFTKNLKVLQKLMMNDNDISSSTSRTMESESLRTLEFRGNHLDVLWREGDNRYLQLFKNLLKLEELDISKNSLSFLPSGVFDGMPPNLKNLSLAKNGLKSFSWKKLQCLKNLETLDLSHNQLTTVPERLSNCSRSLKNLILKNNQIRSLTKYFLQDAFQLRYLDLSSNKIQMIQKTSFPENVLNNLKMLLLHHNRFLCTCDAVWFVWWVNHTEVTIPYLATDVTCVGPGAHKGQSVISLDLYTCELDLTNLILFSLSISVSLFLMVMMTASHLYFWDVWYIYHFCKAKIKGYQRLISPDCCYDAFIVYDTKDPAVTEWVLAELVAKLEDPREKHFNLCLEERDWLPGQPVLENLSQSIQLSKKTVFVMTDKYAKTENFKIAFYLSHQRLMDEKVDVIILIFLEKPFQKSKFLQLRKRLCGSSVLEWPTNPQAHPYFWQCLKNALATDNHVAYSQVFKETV
The assay is described as follows: Human TLR7 Assay (SEAP reporter in HEK293 cells).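 Also: Read-out is secreted alkaline phosphatase made under an NFkB/ELAM-1 composite promoter, reporting TLR7-triggered NFkB activation.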 It is filed as cell-based. The conditions noted are these: HEK293 cell line expressing human TLR7 and pNiFty2-SEAP reporter, overnight incubation at 37° C., 0.1% DMSO; read-out: hTLR7 EC50.
Excerpt: The most common variant sequence of human TLR7 (represented by the EMBL sequence AF240467) was cloned into the mammalian cell expression vector pUNO and transfected into a HEK293 cell line already stably expressing the pNiFty2-SEAP reporter plasmid; integration of the reporter gene was maintained by selection with the antibiotic zeocin. Transfectants with stable TLR7 expression were selected using the antibiotic blasticidin. In this reporter cell-line, expression of secreted alkaline phosphatase (SEAP) is controlled by an NFkB/ELAM-1 composite promoter comprising five NFkB sites combined with the proximal ELAM-1 promoter. TLR signaling leads to the translocation of NFkB and activation of the promoter results in expression of the SEAP gene. TLR7-specific activation was assessed by determining the level of SEAP produced following overnight incubation of the cells at 37° C. with the standard compound in the presence of 0.1% (v/v) dimethylsulfoxide (DMSO). Concentration dependent induction of SEAP production by compounds was expressed as the concentration of compound which produced half of the maximal level of SEAP induction for that compound (EC50).

In assay [2] the test system is Male Brown Norway rats. The assay is described as follows: Antigen-induced pulmonary inflammation in a rat asthma model (eosinophils and Th2 cytokines in BALF). It is filed as in vivo. The conditions noted are these: BALF 48 hours after challenge. The method, then:
Rats were sensitized and challenged to produce allergic airway inflammation in a similar manner to that described by Underwood et al (British Journal of Pharmacology 2002; 137: 263-275, 2002). Male Brown Norway rats were sensitized subcutaneously with ovalbumin (OVA) and aluminum hydroxide on day 0, and challenged with aerosolized OVA solution on day 14. The test compound was administered twice intratracheally 24 hours before and 24 hours after the OVA-challenge and bronchoalveolar lavage fluid (BALF) was collected 48 hours after the OVA-challenge. Then eosinophils and Th2 cytokines (IL-5 and IL-13) in the BALF were measured to evaluate efficacy of the test compounds of this invention.

The mark [3] stands for this setting: 0.1 mg/kg intratracheally 24 hours before and 24 hours after OVA-challenge.
Setting [4] is: 1.0 mg/kg intratracheally 24 hours before and 24 hours after OVA-challenge.
Where [5] appears, read: 0.03 mg/kg intratracheally 24 hours before and 24 hours after OVA-challenge.
The mark [6] stands for this setting: 0.3 mg/kg intratracheally 24 hours before and 24 hours after OVA-challenge.

A word on the EC50: it is the concentration giving half of the maximal effect. As to `CCN(CC)CC(=O)N(CCCn1c(CCOC)nc2c(N)nc3ccccc3c21)Cc1cccc(OCC(=O)OC2CCCC2)c1` [Example 80, Cyclopentyl 2-{3-[(N-{3-[4-amino-2-(2-methoxyethyl)-1H-imidazo[4,5-c]quinolin-1-yl]propyl}-2-{diethylamino}acetamido)methyl]phenoxy}acetate], the concentration giving a half-maximal response (EC50) in assay [1] was determined as 56.6 nM. Also, in assay [2] (setting [3]), the “Eosinophiles in BALF, inhibition (%) to OVA-Challenge control” value (“Eosinophiles in BALF, inhibition (%)” below) worked out at 15%; the “IL-5 in BALF, inhibition (%) to OVA-Challenge control” value (“IL-5 in BALF, inhibition (%)” below) is on record as “No effect”; the “IL-13 in BALF, inhibition (%) to OVA-Challenge control” value (“IL-13 in BALF, inhibition (%)” below) is on record as “No effect”. In addition, in assay [2] (setting [4]), the “Eosinophiles in BALF, inhibition (%)” value came out at 89%; the “IL-5 in BALF, inhibition (%)” value is 91%; the “IL-13 in BALF, inhibition (%)” value was determined as 83%.

On to `CCN(CC)CC(=O)N(CCCn1c(CCOC)nc2c(N)nc3ccccc3c21)Cc1cccc(OCC(=O)OC(C)C)c1F` [Example 94, Isopropyl 2-{3-[(N-{3-[4-amino-2-(2-methoxyethyl)-1H-imidazo[4,5-c]quinolin-1-yl]propyl}-2-{diethylamino}acetamido)methy]-2-fluorophenoxy}acetate], for which, in assay [1], the 50% effective concentration (EC50) worked out at 27.9 nM. Moreover, in assay [2] (setting [3]), the “Eosinophiles in BALF, inhibition (%)” value stood at 68%; the “IL-5 in BALF, inhibition (%)” value was found to be 34%; the “IL-13 in BALF, inhibition (%)” value came out at 50%. Also, in assay [2] (setting [4]), the “Eosinophiles in BALF, inhibition (%)” value is 91%; the “IL-5 in BALF, inhibition (%)” value is 90%; the “IL-13 in BALF, inhibition (%)” value is given as 82%.

Consider `CCOCc1nc2c(N)nc3ccccc3c2n1CCCN(Cc1cccc(OCC(=O)OC(C)C)c1)C(=O)CN(CC)CC` [Example 161, Isopropyl 2-{3-[(N-{3-[4-amino-2-(ethoxymethyl)-1H-imidazo[4,5-c]quinolin-1-yl]propyl}-2-{diethylamino}acetamido)methyl]phenoxy}acetate], for which the half-maximal effective concentration (EC50) in assay [1] is 262 nM. For the same compound, in assay [2] (setting [5]), the “Eosinophiles in BALF, inhibition (%)” value amounted to 54% and the “IL-13 in BALF, inhibition (%)” value is recorded as “No effect”. In assay [2] (setting [6]), the “Eosinophiles in BALF, inhibition (%)” value came out at 66% and the “IL-13 in BALF, inhibition (%)” value came out at 64%.

Regarding `CCOCc1nc2c(N)nc3ccccc3c2n1CCCN(Cc1cccc(OC(C)(C)C(=O)OC)c1)C(=O)CN(CC)CC` [Example 163, Methyl 2-{3-[(N-{3-[4-amino-2-(ethoxymethyl)-1H-imidazo[4,5-c]quinolin-1-yl]propyl}-2-{diethylamino}acetamido)methyl]phenoxy}-2-methylpropanoate], the EC50 in assay [1] came out at 174 nM. For the same compound, in assay [2] (setting [5]), the “Eosinophiles in BALF, inhibition (%)” value was determined as 45% and the “IL-13 in BALF, inhibition (%)” value came out at 50%. For the same compound, in assay [2] (setting [6]), the “Eosinophiles in BALF, inhibition (%)” value amounted to 65% and the “IL-13 in BALF, inhibition (%)” value amounted to 80%.

For the origin of these results see US20110136801A1, “Novel Compounds” (Dainippon Sumitomo Pharma Co. Ltd., priority 2009, published 2011).
